Data published in patent publication US20220323437A1, “METHODS FOR TREATING PULMONARY ARTERIAL HYPERTENSION” (ACTELION PHARMACEUTICALS LTD, priority 2019, published 2022).
Read-outs that look alike come from different tables or passages of the source.

Test: Pharmacokinetics of selexipag and ACT-333679 after oral and i.v. selexipag in subjects with stable PAH (Phase 3 switch study)
Type: in vivo, human
Conditions: for AUC / Cmax: human, plasma, steady state; for AUC: read-out: AUCτ, ss Geom. Mean; for Cmax: read-out: Cmax, ss Geom. Mean
Experimental: This was a prospective, multicenter, open-label, single-sequence, cross-over, Phase 3 study. Based on the dose of selexipag received at study entry, subjects were allocated to one of the following groups, selexipag 200-1000 μg b.i.d. or selexipag 1200-1600 μg b.i.d. See, FIG. 1. The study comprised the following periods:
(ii) Treatment and observation period: The treatment and observation period included the following consecutive periods: • Period 1 included oral selexipag pre-treatment period for 1 day, in-hospital. This period started with intake of the morning dose of oral selexipag on Day 1 at Visit 2 and ended the following day, before initiation of the first infusion of i.v. selexipag. • Period 2 included i.v. selexipag treatment period for 36 hours [3 infusions], in-hospital. This period started in the morning of Day 2 at Visit 2 with the start of the first infusion of i.v. selexipag and ended in the evening of Day 3 at Visit 2 before the evening administration of oral selexipag. Administration of oral selexipag was interrupted during the i.v. selexipag treatment period. • Period 3 included oral selexipag post-treatment period for 7 to 11 day. This period started in the evening of Day 3 at Visit 2 with the administration of oral selexipag and ended 7-11 days later, at Visit 3.
Selexipag was provided as a dry powder to be reconstituted as an injectable solution for i.v. administration. Before administration, selexipag dry powder was to be reconstituted and diluted with sterile 0.9% NaCl solution. Each subject received an i.v. selexipag dose that corresponded to the subject's individual stable dose of oral selexipag. […] See, Table 4.
The intravenous infusion took place over a 87-minute period (2 infusions on Day 2 and 1 infusion on Day 3)
The following PK endpoints were analyzed for selexipag and its active metabolite, ACT-333679, after oral selexipag in Period 1 and after i.v. selexipag administration in Period 2. See, FIG. 2. • The area under the plasma-concentration time curve (AUC) during a dose interval at steady state (AUCτ, ss). • The maximum plasma concentration at steady state (Cmax, ss). • The time to reach maximum plasma concentration at steady state (tmax, ss). • Trough plasma concentration at steady state (Ctrough, ss).

tmax, ss between the i.v. and oral selexipag periods (Period 2 vs Period 1): comparable
slope of dose proportional increase in exposure (after i.v. selexipag, 450-1800 μg b.i.d. dose range): 0.697
exposure after i.v. and oral selexipag administration (conclusion of the study): comparable
AUC (iv, Period 2 (i.v. selexipag)): 15.9 ng·h/mL
Cmax (iv, Period 2 (i.v. selexipag)): 2.6 ng/mL
AUC (Period 1 (oral selexipag)): 19.3 ng·h/mL
Cmax (Period 1 (oral selexipag)): 3.3 ng/mL
dose-normalized geometric mean ratio (i.v./oral selexipag) for AUCτ, ss (90% CI) (i.v. to oral dose ratio 1.125): 0.80 (0.71, 0.90)
dose-normalized geometric mean ratio (i.v./oral selexipag) for Cmax, ss (90% CI) (i.v. to oral dose ratio 1.125): 0.79 (0.65, 0.96)
Structure (SMILES): CC(C)N(CCCCOCC(=O)O)c1cnc(-c2ccccc2)c(-c2ccccc2)n1 [ACT-333679]
